Reference: patent publication US11447465B2, “Pharmaceutical compounds for treatment of medical disorders” (Achillion Pharmaceuticals, Inc., priority 2017, dated 2022)

Each molecule was assayed against Human Factor D (Homo sapiens (Human), UniProt P00746) (assay: Human Factor D Assay). Details: Table 5; Human Factor D 80 nM, substrate Z-L-Lys-SBzl; read-out: IC50 (Stars).
Format: biochemical
Outline: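 Serum-purified human factor D (80 nM final) preincubated with compound 5 min at room temperature in 50 mM Tris, 1 M NaCl, pH 7.5. Z-L-Lys-SBzl and DTNB added at 100 μM each; A405 followed every 30 s for 30 min. IC50 by nonlinear regression of rates.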

Sequence of Human Factor D (P00746 26-253): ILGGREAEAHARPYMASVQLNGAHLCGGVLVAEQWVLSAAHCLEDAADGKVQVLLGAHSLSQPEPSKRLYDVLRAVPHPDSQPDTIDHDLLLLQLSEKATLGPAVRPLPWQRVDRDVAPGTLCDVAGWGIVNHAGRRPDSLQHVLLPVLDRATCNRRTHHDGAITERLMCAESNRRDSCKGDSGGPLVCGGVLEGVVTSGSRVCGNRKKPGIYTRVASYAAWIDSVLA

Compound | IC50 [nM]
CC(=O)c1nn(CC(=O)N2[C@H](C(=O)Nc3nc(Br)ccc3C)C[C@@]3(CN4C[C@H]5CCC[C@H]5C4)C[C@@H]23)c2c(C)cccc12 [Compound T-39, (1R,3S,5R)-2-(2-(3-acetyl-7-methyl-1H-indazol-1-yl)acetyl)-N-(6-bromo-3-methylpyridin-2-yl)-5-(((3aR,6aS)-hexahydrocyclopenta[c]pyrrol-2(1H)-yl)methyl)-2-azabicyclo[3.1.0]hexane-3-carboxamide] | < 1000
CC(=O)c1cn(CC(=O)N2[C@H]3C[C@@]3(CN(C)C)C[C@H]2C(=O)NCc2cccc(Cl)c2F)c2cc(P(C)(=O)O)ccc12 [Compound T-48, (3-acetyl-1-(2-((1S,3S,5S)-3-((3-chloro-2-fluorobenzyl)carbamoyl)-5-((dimethylamino)methyl)-2-azabicyclo[3.1.0]hexan-2-yl)-2-oxoethyl)-1H-indol-6-yl)(methyl)phosphinic acid] | 1000 to 10000
NC(=O)c1nn(CC(=O)N2C[C@H](F)C[C@H]2C(=O)Nc2cccc(Br)n2)cc1/C=C/C(=O)NC1CC1 [Compound T-28, 1-(2-((2S,4R)-2-((6-bromopyridin-2-yl)carbamoyl)-4-fluoropyrrolidin-1-yl)-2-oxoethyl)-4-((E)-3-(cyclopropylamino)-3-oxoprop-1-en-1-yl)-1H-pyrazole-3-carboxamide] | 1000 to 10000
CC(=O)c1nn(CC(=O)N2[C@H](C(=O)Nc3nc(Br)ccc3C)C[C@@]3(CN(C)C)C[C@@H]23)c2cc(C(=O)NS(=O)(=O)C3CC3)ccc12 [Compound T-49, 3-acetyl-1-(2-((1R,3S,5R)-3-((6-bromo-3-methylpyridin-2-yl)carbamoyl)-5-((dimethylamino)methyl)-2-azabicyclo[3.1.0]hexan-2-yl)-2-oxoethyl)-N-(cyclopropylsulfonyl)-1H-indazole-6-carboxamide] | < 1000
CC(=O)c1nn(CC(=O)N2C[C@H](F)C[C@H]2C(=O)Nc2cccc(Br)n2)c2ccc(S(C)(=N)=O)cc12 (stereo partly drawn) [Compound T-3, (2S,4R)-1-(2-(3-acetyl-5-(S-methylsulfonimidoyl)-1H-indazol-1-yl)acetyl)-N-(6-bromopyridin-2-yl)-4-fluoropyrrolidine-2-carboxamide] | < 1000
CC(=O)c1nn(CC(=O)N2C[C@H](F)C[C@H]2C(=O)NCC23C4C5C6C4C2C6C53)c2ccccc12 (stereo partly drawn) [Compound T-8, (2S,4R)-1-(2-(3-acetyl-1H-indazol-1-yl)acetyl)-N-(cuban-1-ylmethyl)-4-fluoropyrrolidine-2-carboxamide] | 1000 to 10000
CC(=O)c1nn(CC(=O)N2[C@H](C(=O)Nc3nc(Br)ccc3C)C[C@@]3(CNC(=O)CC(F)(F)F)C[C@@H]23)c2c(C)cccc12 [Compound T-35, (1R,3S,5R)-2-(2-(3-acetyl-7-methyl-1H-indazol-1-yl)acetyl)-N-(6-bromo-3-methylpyridin-2-yl)-5-((3,3,3-trifluoropropanamido)methyl)-2-azabicyclo[3.1.0]hexane-3-carboxamide] | < 1000

Same assay, conditions: Table 6; Human Factor D 80 nM, substrate Z-L-Lys-SBzl; read-out: IC5 (Stars)

Compound | IC50 [nM]
CS(=O)(COc1ccc2c(C(N)=O)nn(CC(=O)N3C[C@H](F)C[C@H]3C(=O)Nc3cccc(-c4ccccc4Cl)c3F)c2c1)=NC#N (some centres unmarked) [Compound T-62] | < 1000
CC(=O)c1nn(CC(=O)N2C[C@H](F)C[C@H]2C(=O)Nc2cccc(Br)n2)c2ccc(O[C@@H]3CO[C@H]4[C@@H]3OC[C@H]4OC(=O)[C@@H](N)C(C)C)cc12 [Compound T-57, (3R,3aR,6R,6aR)-6-((3-acetyl-1-(2-((2S,4R)-2-((6-bromopyridin-2-yl)carbamoyl)-4-fluoropyrrolidin-1-yl)-2-oxoethyl)-1H-indazol-5-yl)oxy)hexahydrofuro[3,2-b]furan-3-yl L-valinate] | < 1000
CC(=O)c1nn(CC(=O)N2[C@H](C(=O)Nc3nc(Br)ccc3C)C[C@@]3(C)C[C@@H]23)c2ccc(O[C@@H]3CO[C@H]4[C@@H]3OC[C@H]4O)cc12 [Compound T-52, (1R,3S,5R)-2-(2-(3-acetyl-5-(((3R,3aR,6R,6aR)-6-hydroxy-hexahydrofuro[3,2-b]furan-3-yl)oxy)-1H-indazol-1-yl)acetyl)-N-(6-bromo-3-methylpyridin-2-yl)-5-methyl-2-azabicyclo[3.1.0]hexane-3-carboxamide] | < 1000
CS(=N)(=O)COc1ccc2c(C(N)=O)nn(CC(=O)N3C[C@H](F)C[C@H]3C(=O)Nc3cccc(-c4ccccc4Cl)c3F)c2c1 (stereo partly drawn) [Compound T-60, 1-(2-((2S,4R)-2-((2′-chloro-2-fluoro-[1,1′-biphenyl]-3-yl)carbamoyl)-4-fluoropyrrolidin-1-yl)-2-oxoethyl)-6-((S-methylsulfonimidoyl)methoxy)-1H-indazole-3-carboxamide] | < 1000
CC(=O)c1nn(CC(=O)N2[C@H](C(=O)Nc3nc(Br)ccc3C)C[C@@]3(C)C[C@@H]23)c2ccc(OCCS(=O)(=O)CC3(C)COC3)cc12 [Compound T-59, (1R,5R)-2-(2-(3-acetyl-5-(2-(((3-methyloxetan-3-yl)methyl)sulfonyl)ethoxy)-1H-indazol-1-yl)acetyl)-N-(6-bromo-3-methylpyridin-2-yl)-5-methyl-2-azabicyclo[3.1.0]hexane-3-carboxamide] | < 1000

Same assay, conditions: Table 7; read-out: IC5 (Stars)

IC50 [nM] | Compound
> 10000 | Cc1ccc(Br)nc1NC(=O)[C@@H]1C[C@@]2(C)C[C@H]2N1C(=O)Cc1ccc2[nH]nc(C(N)=O)c2c1 [Compound T-98, 5-(2-((1R,3S,5R)-3-((6-bromo-3-methylpyridin-2-yl)carbamoyl)-5-methyl-2-azabicyclo[3.1.0]hexan-2-yl)-2-oxoethyl)-1H-indazole-3-carboxamide]
< 1000 | CC(=O)c1cc(CC(=O)N2C[C@H](F)C[C@H]2C(=O)Nc2cccc(Br)n2)cc(-c2cnc(C)nc2)c1 [Compound T-105, (2S,4R)-1-(2-(3-acetyl-5-(2-methylpyrimidin-5-yl)phenyl)acetyl)-N-(6-bromopyridin-2-yl)-4-fluoropyrrolidine-2-carboxamide]
1000 to 10000 | Cc1ncc(-c2cc(CC(=O)N3[C@H](C(=O)Nc4nc(Br)ccc4C)C[C@@]4(C)C[C@@H]34)cc(C(N)=O)c2)cn1 [Compound T-113, (1R,3S,5R)-N-(6-bromo-3-methylpyridin-2-yl)-2-(2-(3-carbamoyl-5-(2-methylpyrimidin-5-yl)phenyl)acetyl)-5-methyl-2-azabicyclo[3.1.0]hexane-3-carboxamide]
1000 to 10000 | Cc1ncc(-c2cc(CC(=O)N3C[C@H](F)C[C@H]3C(=O)Nc3cccc(-c4ccccc4Cl)c3F)cc(OCC(=O)O)c2)cn1 [Compound T-120, 2-(3-(2-((2S,4R)-2-((2′-chloro-2-fluoro-[1,1′-biphenyl]-3-yl)carbamoyl)-4-fluoropyrrolidin-1-yl)-2-oxoethyl)-5-(2-methylpyrimidin-5-yl)phenoxy)acetic acid]
1000 to 10000 | Cc1ncc(-c2cc(CC(=O)N3C[C@H](F)C[C@H]3C(=O)Nc3cccc(Br)n3)cc(C(N)=O)c2)cn1 [Compound T-167, (2S,4R)-N-(6-bromopyridin-2-yl)-1-(2-(3-carbamoyl-5-(2-methylpyrimidin-5-yl)phenyl)acetyl)-4-fluoropyrrolidine-2-carboxamide]
> 10000 | Cc1ncc(-c2cc(CC(=O)N3C[C@H](F)C[C@H]3C(=O)Nc3cccc(-c4ccccc4Cl)c3F)cc(-c3cnc(O)nc3)c2)cn1 [Compound T-118, (2S,4R)-N-(2′-chloro-2-fluoro-[1,1′-biphenyl]-3-yl)-4-fluoro-1-(2-(3-(2-hydroxypyrimidin-5-yl)-5-(2-methylpyrimidin-5-yl)phenyl)acetyl)pyrrolidine-2-carboxamide]
1000 to 10000 | Cc1ncc(-c2cc(C#N)cc(CC(=O)N3C[C@H](F)C[C@H]3C(=O)Nc3cccc(Br)n3)c2)cn1 [Compound T-170, (2S,4R)-N-(6-bromopyridin-2-yl)-1-(2-(3-cyano-5-(2-methylpyrimidin-5-yl)phenyl)acetyl)-4-fluoropyrrolidine-2-carboxamide]

Compound | IC50 [nM]
CC(=O)c1nn(CC(=O)N2[C@H](C(=O)Nc3nc(Br)ccc3C)C[C@@]3(CNC(=O)COCCOCCNC(=O)COCCOCCNC(=O)CCCCCCCCCCCCCCCCC(=O)O)C[C@@H]23)c2ccc(OC(=O)NC3CC3)cc12 [Compound T-128, 1-((1R,3S,5R)-2-(2-(3-acetyl-5-((cyclopropylcarbamoyl)oxy)-1H-indazol-1-yl)acetyl)-3-((6-bromo-3-methylpyridin-2-yl)carbamoyl)-2-azabicyclo[3.1.0]hexan-5-yl)-3,12,21-trioxo-5,8,14,17-tetraoxa-2,11,20-triazaoctatriacontan-38-oic acid] | < 1000
C#CCNC(=O)c1nn(CC(=O)N2[C@H](C(=O)Nc3nc(Br)ccc3C)C[C@@]3(C)C[C@@H]23)c2ccc(-c3cnc(C)nc3)cc12 [Compound T-121, 1-(2-((1R,3S,5R)-3-((6-bromo-3-methylpyridin-2-yl)carbamoyl)-5-methyl-2-azabicyclo[3.1.0]hexan-2-yl)-2-oxoethyl)-5-(2-methylpyrimidin-5-yl)-N-(prop-2-yn-1-yl)-1H-indazole-3-carboxamide] | < 1000
CCP(=O)(O)COc1ccc2c(C(C)=O)nn(CC(=O)N3C[C@H](F)C[C@H]3C(=O)Nc3nc(Br)ccc3C)c2c1 [Compound T-79, (((3-acetyl-1-(2-((2S,4R)-2-((6-bromo-3-methylpyridin-2-yl)carbamoyl)-4-fluoropyrrolidin-1-yl)-2-oxoethyl)-1H-indazol-6-yl)oxy)methyl)(ethyl)phosphinic acid] | < 1000
Cc1ccc(Br)nc1NC(=O)[C@@H]1C[C@@]2(CNC(=O)COCCOCCNC(=O)COCCOCCNC(=O)CC[C@H](NC(=O)CCCCCCCCCCCCCCCCC(=O)O)C(=O)O)C[C@H]2N1C(=O)Cn1nc(C(N)=O)c2ccc(C(=O)NS(=O)(=O)C3CC3)cc21 [Compound T-126, (S)-1-((1R,3S,5R)-3-((6-bromo-3-methylpyridin-2-yl)carbamoyl)-2-(2-(3-carbamoyl-6-((cyclopropylsulfonyl)carbamoyl)-1H-indazol-1-yl)acetyl)-2-azabicyclo[3.1.0]hexan-5-yl)-24-carboxy-3,12,21,26-tetraoxo-5,8,14,17-tetraoxa-2,11,20,25-tetraazatritetracontan-43-oic acid] | < 1000
